Laboratory results from patent US6911416B2, “Substituted N-benzoyl-n′(tetrazolylphenyl)-ureas and their use as pest control agents” (priority 2000, dated 2005).

Test system: mustard beetle (Phaedon cochleariae) larvae
Assay: Phaedon larvae test (dipped cabbage leaves)
Type: in vivo
Details: active compound concentration 0.1%, after 7 days, cabbage leaves (Brassica oleracea)
Description: (§1) To produce a suitable active compound preparation, 1 part by weight of active compound is mixed with the stated amounts of solvent and emulsifier, and the concentrate is diluted with emulsifier-containing water to the desired concentration.
Cabbage leaves (Brassica oleracea) are treated by dipping into the active compound preparation of the desired concentration and are populated with mustard beetle (Phaedon cochleariae) larvae while the leaves are still moist.
After the desired period, the destruction is determined in %. 100% means that all the beetle have been killed; 0% means that none of the beetle larvae have been killed.

Compound	destruction [%]
CC(C)(C)n1nnc(-c2ccc(NC(=O)NC(=O)c3c(F)cccc3F)c(Cl)c2)n1 [Example 4]	100
O=C(NC(=O)c1c(F)cccc1F)Nc1ccc(-c2nnnn2C(F)F)cc1Cl [Example 20]	100
O=C(NC(=O)c1c(F)cccc1F)Nc1ccc(-c2nnn(C(F)F)n2)cc1Cl [Example 18]	100
CC(C)(C)n1nnc(-c2cc(Cl)c(NC(=O)NC(=O)c3c(F)cccc3F)cc2Cl)n1 [Example 16]	100
CC(C)(C)n1nnc(-c2ccc(NC(=O)NC(=O)c3c(F)cccc3Cl)c(Cl)c2)n1 [Example 10]	100

Test system: not listed separately
Assay: logP (pH2) determination by HPLC, EEC directive 79/831 Annex V. A8
Type: physicochemical
Details: pH 2

Compound	log P(pH2)	logP (pH2) or m.p. (° C.)
N-(2,6-difluorobenzoyl)-N′-[2-chloro-4-(1-methyl-tetrazol-5-yl]-urea [Example 3]	2.31	
O=C(NC(=O)c1c(F)cccc1F)Nc1ccc(-c2nnn(-c3ccccc3)n2)cc1Cl [Example 19]		4.63

Same assay, conditions: pH2; Table 1, compounds of formula (I); only decimal values are logP

Compound	logP (pH2)
Cn1nnc(-c2ccc(NC(=O)NC(=O)c3c(F)cccc3F)c(Cl)c2)n1 [Example 5]	2.88
CC(C)(C)n1nnc(-c2ccc(NC(=O)NC(=O)c3c(F)cccc3F)cc2Cl)n1 [Example 35]	3.68
CC(C)(C)n1nnc(-c2cc(Cl)ccc2NC(=O)NC(=O)c2c(F)cccc2F)n1 [Example 11]	4.20
O=C(NC(=O)c1c(F)cccc1F)Nc1ccc(Cl)cc1-c1nn[nH]n1 [Example 6]	2.16
O=C(NC(=O)c1c(F)cccc1F)Nc1cc(Cl)c(-c2nn[nH]n2)cc1Cl [Example 7]	2.30

Same assay, conditions: pH2; Table 2, tetrazolylanilines of formula (III)

Compound	logP (pH2)
Nc1ccc(-c2nnnn2C(F)F)c(Cl)c1 [III-49]	1.81
CC(C)(C)n1nnc(-c2cc(Cl)c(N)c(Cl)c2)n1 [III-19]	3.81
Nc1ccc(-c2nn[nH]n2)c(Cl)c1 [III-9]	1.53
Nc1ccc(-c2nnnn2C(F)F)cc1Cl [III-16]	1.92
CC(C)Cn1nnc(-c2cc(Cl)c(N)c(Cl)c2)n1 [III-20]	3.78
Nc1ccc(-c2nnn(C(F)F)n2)c(Cl)c1 [III-48]	2.09
Nc1ccc(-c2nnn(-c3ccccc3)n2)cc1Cl [III-15]	3.28
CC(=O)OCCn1nnc(-c2ccc(N)c(Cl)c2)n1 [III-24]	1.92
Nc1cc(Cl)c(-c2nn[nH]n2)cc1Cl [III-8]	1.16
Nc1cc(Cl)c(-c2nnnn2C(F)F)cc1Cl [III-29]	2.36
CC(C)Cn1nnc(-c2ccc(N)c(Cl)c2)n1 [III-17]	2.95
CCOCn1nnc(-c2ccc(N)c(Cl)c2)n1 [III-11]	2.34
CC(C)(C)n1nnc(-c2ccc(N)cc2)n1 [III-23]	1.69
COC(=O)Cn1nnc(-c2ccc(N)c(Cl)c2)n1 [III-10]	1.92
CC(C)(C)n1nnc(-c2ccc(N)c(Cl)c2)n1 [III-26]	2.94
Nc1ccc(-c2nnn(CCC(F)=C(F)F)n2)cc1Cl [III-18]	2.68
Nc1cc(Cl)c(-c2nnn(C(F)F)n2)cc1Cl [III-28]	2.69
CCCn1nnc(-c2cc(Cl)c(N)cc2Cl)n1 [III-22]	2.75
Nc1ccc(-c2nnn(C(F)F)n2)c(F)c1 [III-50]	1.84
Nc1ccc(Cl)cc1-c1nn[nH]n1 [III-7]	1.50
CC(C)Cn1nnc(-c2cc(Cl)c(N)cc2Cl)n1 [III-21]	3.15
Nc1c(Cl)cc(-c2nn[nH]n2)cc1Cl [III-25]	1.40
CC(C)(C)n1nnc(-c2ccc(N)cc2Cl)n1 [III-31]	2.42
Nc1ccc(-c2nnn(C(F)F)n2)cc1Cl [III-14]	2.08
Cc1cc(-c2nn[nH]n2)cc(Cl)c1N [III-5]	1.20
CC(C)(C)n1nnc(-c2ccc(N)cc2F)n1 [III-32]	2.14
Cn1nnc(-c2ccc(N)c(Cl)c2)n1 [III-6]	1.70
Nc1ccc(-c2nnn(C(F)F)n2)cc1 [III-46]	1.49
Nc1ccc(-c2nnnn2C(F)F)cc1 [III-47]	1.24
CCCn1nnc(-c2ccc(N)c(Cl)c2)n1 [III-12]	2.52

Same assay, conditions: pH 2; pH2; HPLC gradient acetonitrile/0.1% aqueous phosphoric acid; values in preparation examples; read-out: log P(pH2)

Compound	chromatographic logP
Cn1nnnc1-c1ccc(N)c(Cl)c1 [1-methyl-(3-chloro-4-aminophenyl)-tetrazole]	1.17
CC(C)(C)n1nnc(-c2cc(Cl)ccc2N)n1 [Example a, 5-(2-amino-5-chlorophenyl)-2-tert-butyl-tetrazole]	3.58
Nc1ccc(-c2nnn(Cc3ccc(Br)cc3)n2)cc1Cl [Example b, 5-(3-chloro-4-aminophenyl)-2-(4-bromobenzyl)-tetrazole]	3.52
O=C(NC(=O)c1c(F)cccc1F)Nc1ccc(-c2nn[nH]n2)cc1Cl [Example 1, N-(2,6-difluorobenzoyl)-N′-(2-chloro-4-tetrazol-5-yl-phenyl)-urea]	2.13
Nc1ccc(-c2nn[nH]n2)cc1Cl [5-(3-chloro-4-aminophenyl)-tetrazole]	1
O=C(NC(=O)c1c(F)cccc1F)Nc1ccc(-c2nnn(C3CCCCO3)n2)cc1Cl (centres unmarked) [Example 2, N-(2,6-difluorobenzoyl)-N′-[2-chloro-4-(2-tetrahydropyran-2-yl-tetrazol-5-yl)-phenyl]-urea]	3.72

Test system: fall armyworm (Spodoptera frugiperda) caterpillars
Assay: Spodoptera frugiperda test (dipped cabbage leaves)
Type: in vivo
Details: active compound concentration 0.1%, after 7 days, cabbage leaves (Brassica oleracea)
Description: Spodoptera frugiperda Test
as §1
Cabbage leaves (Brassica oleracea) are treated by dipping into the active compound preparation of the desired concentration and are populated with fall armyworm (Spodoptera frugiperda) caterpillars while the leaves are still moist.
(§2) After the desired period, the destruction is determined in %. 100% means that all the caterpillars have been killed; 0% means that none of the caterpillars have been killed.

Compound	destruction [%]
CC(C)(C)n1nnc(-c2ccc(NC(=O)NC(=O)c3c(F)cccc3F)c(Cl)c2)n1 [Example 4]	100
Cn1nnc(-c2ccc(NC(=O)NC(=O)c3c(F)cccc3F)c(Cl)c2)n1 [Example 5]	100
O=C(NC(=O)c1c(F)cccc1F)Nc1ccc(-c2nnnn2C(F)F)cc1Cl [Example 20]	100
O=C(NC(=O)c1c(F)cccc1F)Nc1ccc(-c2nnn(C(F)F)n2)cc1Cl [Example 18]	100
CC(C)(C)n1nnc(-c2cc(Cl)c(NC(=O)NC(=O)c3c(F)cccc3F)cc2Cl)n1 [Example 16]	100
CCOCn1nnc(-c2ccc(NC(=O)NC(=O)c3c(F)cccc3F)c(Cl)c2)n1 [Example 14]	100
CC(C)(C)n1nnc(-c2ccc(NC(=O)NC(=O)c3c(F)cccc3Cl)c(Cl)c2)n1 [Example 10]	100
CCCn1nnc(-c2ccc(NC(=O)NC(=O)c3c(F)cccc3F)c(Cl)c2)n1 [Example 15]	100

Test system: diamond-back moth (Plutella xylostella) caterpillars
Assay: Plutella test (dipped cabbage leaves)
Type: in vivo
Details: active compound concentration 0.1%, after 6 days, cabbage leaves (Brassica oleracea)
Description: as §1
Cabbage leaves (Brassica oleracea) are treated by dipping into the active compound preparation of the desired concentration and are populated with diamond-back moth (Plutella xylostella) caterpillars while the leaves are still moist.
as §2

Compound	destruction [%]
CC(C)(C)n1nnc(-c2ccc(NC(=O)NC(=O)c3c(F)cccc3F)c(Cl)c2)n1 [Example 4]	100

Test system: fall armyworm (Spodoptera exigua) caterpillars
Assay: Spodoptera exigua test (dipped cabbage leaves)
Type: in vivo
Details: active compound concentration 0.1%, after 6 days, cabbage leaves (Brassica oleracea)
Description: as §1
Cabbage leaves (Brassica oleracea) are treated by dipping into the active compound preparation of the desired concentration and are populated with fall armyworm (Spodoptera exigua) caterpillars while the leaves are still moist.
as §2

Compound	destruction [%]
CC(C)(C)n1nnc(-c2ccc(NC(=O)NC(=O)c3c(F)cccc3F)c(Cl)c2)n1 [Example 4]	100

Test system: Heliothis virescens
Assay: Heliothis virescens test (dipped soya shoots)
Type: in vivo
Details: active compound concentration 0.1%, after 6 days, soya shoots (Glycine max)
Description: as §1
Soya shoots (Glycine max) are treated by dipping into the active compound preparation of the desired concentration and are populated with Heliothis virescens while the leaves are still moist.
as §2

Compound	destruction [%]
CC(C)(C)n1nnc(-c2ccc(NC(=O)NC(=O)c3c(F)cccc3F)c(Cl)c2)n1 [Example 4]	100
